According to patent US20110197293A1, “SENSE AND ANTISENSE TRANSCRIPTS OF TRPM2 AND USES THEREOF” (GIOVANNI LAVORGNA, priority 2008, published 2011):

Legend:
Type in all cases: cell-based, human
[1] = tested on: Melanoma cells; experiment: Apoptosis detection by flow cytometry (Annexin V) after siRNA transfection; conditions: 72 h after transfection
Method: Apoptosis was measured after a 72 h transfection with any of the following siRNA: TRPM2-AS—657, TRPM2-AS—734, TRPM2-TE—55 or the non-specific siRNA. Early and late apoptotic cells were assessed by flow cytometry using the Annexin V-Fitc Apoptosis Detection kit (Immunostep, Salamanca, Spain), following manufacturer's instructions. Data acquisition and analysis were done in a FACSort Cytometer (Becton Dickinson, Franklin Lakes, N.J.) using CellQuest and FCS Express software.

[2] = tested on: TRPM2-AS transcript; experiment: qPCR of TRPM2-AS transcript after siRNA transfection in Mel Im cells; conditions: siRNA 10 nM, harvested at 24 hours, respect to mock-transfected cells
Source text: (§1) Beta-actin (Exons 5-6) was amplified from cDNAs using the specific primers: LC+hBactin-U 5′-TCCTCCTGGAGAAGAGCTA-3′ (SEQ ID No. 6) and LC+hBactin-L 5′-GGATGCCACAGGACTCCAT-3′ (SEQ ID No. 7) coupled to human Universal Probe Library (UPL) probe number 11 (Roche) resulting in a 124 bp fragment. TRPM2-FL (Exons 20-21) was amplified by RT-PCR from cDNAs using the specific primers: RCH_LONG_TRPM2_U 5′-ACCTCCTCATCGCCATGTT-3′ (SEQ ID No. 8) and RCH_LONG_TRPM2_L 5′-[…]-3′ (SEQ ID No. 9) coupled to human UPL probe number 11, resulting in a 68 bp fragment. TRPM2-AS (Exons 1-2) was amplified by RT-PCR from cDNAs using the specific primers: RCH-asmel-1F 5′-[…]-3′ (SEQ ID No. 10) and RCH-asmel-1R 5′-[…]-3′ (SEQ ID No. 11) coupled to human UPL probe number 57, resulting in a 61 bp fragment. TRPM2-TE was amplified from cDNAs using the primers: UPL-TSS-U 5′-GATGTTTTGGCGGAAGGAC-3′ (SEQ ID No. 12) and UPL-TSS-Rev 5′-CAGGAAGACGTGACGCAAG-3′ (SEQ ID No. 13) coupled to human UPL probe number 6, resulting in a 88 bp intronless fragment. The contribution of genomic DNA contamination to the detected signal was subtracted by running a parallel real-time quantification from a RT-minus reaction, where the RT-enzyme was substituted with water. When RNA was not available to perform the RT-minus control, the contribution of DNA contamination to the detected signal was subtracted by performing a real-time quantification on the same samples, using a couple of primers specific for the Beta-actin promoter: LC-ProBACT-U1 5′-[…]-3′ (SEQ ID No. 14) and LC-ProBACT-L1 5′-[…]-3′ (SEQ ID No. 15) coupled to human UPL probe number 81 (Roche) resulting in a 85 bp fragment. Real time PCR reactions were performed on a LightCycler 480 instrument (Roche), on 96 multiwell plates (Roche) using LightCycler 480 ProbeMaster Mix (Roche) following the manufacturer instructions. Briefly, all reactions were performed in a final 30 μl volume containing 15 μl of 2× MasterMix, 0.6 μl of each primer (20 μmol/L), 0.3 μl of the corresponding UPL probe (10 μmol/L), and 10 μl of template cDNA. Only for TRPM2-AS the reaction was supplemented with 6 μl of 5× Solution-Q (Qiagen) and the cDNA template lowered to 7 μl. The resulting mix was pre-incubated for 10 minutes at 95° C., then amplification reactions were performed by 45 repetitive cycles of denaturing for 10 seconds at 95° C., annealing for 15 seconds at 58° C. and a final extension plus single acquisition step at 72° C. for 1 second. Levels of target gene transcripts were normalized to transcript levels of a reference gene (Beta-actin) and calculated using a relative quantification model with efficiency correction. Amplification efficiency of primer pairs was calculated from serial dilutions of a representative cDNA template over a concentration range of 3 log orders. […]

[3] = tested on: TRPM2-TE transcript; experiment: qPCR of TRPM2-TE transcript after siRNA transfection in Mel Im cells; conditions: siRNA 10 nM, harvested at 24 hours, respect to mock-transfected cells
Source text: as §1

[4] = tested on: CpG island located between TRPM2-AS and TRPM2-TE transcripts; experiment: De-novo DNA methylation of the CpG island, bisulphite sequencing of clones; conditions: Mel Im cells, liposome-encapsulated oligonucleotides 3 μM final, 24 hours
Method: Genomic DNA was isolated and purified with TRIzol reagent (Invitrogen) and quantified with a Nanodrop. Average 100 ng of each DNA sample were subjected to bisulphite modification with the MethylEasy Kit (Human Genetic Signatures) allowing the sulphonation reaction to proceed for no less than 8 hours at 55° C. Following conversion, 3 μl of the modified DNAs were PCR amplified with the primers CpG-8U 5′-[…]-3′ (SEQ ID No. 3) and CpG-8L 5′-[…]-3′ (SEQ ID No. 4) (1 ng/μl each) in the presence of buffer 10× (Qiagen), dNTPs (2 mmol/L), 5× Solution Q (Qiagen), Taq DNA Polymerase (3U), with the reaction conditions being: 1 minute of pre-incubation at 95° C., then amplification reactions were performed by 35 repetitive cycles of denaturing for 1 minute at 95° C., annealing for 2 minutes at 55° C. and extension for 2 minutes at 72° C. A semi-nested PCR reaction was performed in same conditions except for the forward primer changed to CpG-1U 5′-[…]-3′ (SEQ ID No. 5), using 4 μl of the previous 472 bp per product as template. The resulting 370 bp product was then gel-purified, cloned and sequenced using standard procedures.
Three phosphorothioate oligonucleotides were designed in which the cytosines in CpG dinucleotides were replaced by m^5 CpG. […]

## 5′-GAAGGACCACAGAGGAAGU(dTdT)-3′ [TRPM2-TE—55]
[1]
  level of apoptosis vs. the control siRNA or the mock transfected cells: significant increase
[2]
  knock-down of TRPM2-AS transcript expression: 30%
[3]
  knock-out of TRPM2-TE transcripts/molecules: 56%

## TCCT^mCGGGCTGCTGAGTTT^mCGC^mCGGCCC (DNA TCCTCGGGCTGCTGAGTTTCGCCGGCCC; 5-methylcytosine modifications, chemistry not fully specified) [MOS]
[4]
  methylation of CpG island clones (5 clones sequenced): non-methylation

## 5′-CCAGUAACUCCGCCCAAAU(dTdT)-3′ [TRPM2-AS—657]
[1]
  level of apoptosis vs. the control siRNA or the mock transfected cells: significant increase
[2]
  knock-down of TRPM2-AS transcript expression: 69%
[3]
  knock-out of TRPM2-TE transcripts/molecules: 84%

## 5′-CCACUUACUCAUCCAAGAA(dTdT)-3′ [TRPM2-AS—734]
[1]
  level of apoptosis vs. the control siRNA or the mock transfected cells: significant increase
[2]
  knock-down of TRPM2-AS transcript expression: 75%
[3]
  knock-out of TRPM2-TE transcripts/molecules: 70%

## 5′-AGGUAGUGUAAUCGCCUUG(dTdT)-3′ [non-specific siRNA, reference compound]
[2]
  knock-down of TRPM2-AS transcript expression: No significant down-regulation
[3]
  knock-out of TRPM2-TE transcripts/molecules: No significant down-regulation
